In patent US10173983B2, “Fungicidal pyridylamidines” (Syngenta Participations AG, priority 2014, dated 2019):

Experiments:
Format in all cases: in vivo
[1] = test system: Phakopsora pachyrhizi; test: Phakopsora pachyrhizi on soybean, preventive treatment; conditions: 264 h, 1 day preventive, triazole tolerant soybean rust strain, evaluated 11 days after application, compared to untreated, read-out: disease control
Experimental: Phakopsora pachyrhizi on Soybean, Preventive Treatment
The compound activity was tested under 1 day preventive conditions. Soybean plants with a fully enfolded first trifoliate leaf were sprayed with a track sprayer and 50 l/ha spray volume with the test compounds, either solo or in tankmix as shown in the table below. 1 day after application leaf discs were cut from the first trifoliate leaf and placed in multiwell plates on water-agar. 5 leaf discs per treatment where infested with spores of a triazole tolerant soybean rust strain. The multiwell plates where sealed and placed in an incubator 48 h in darkness and 12 h light/dark cycle afterwards. Rust infestation on leaf discs was evaluated visually 11 days after application and average activity calculated in relation to disease severity on untreated check leaf discs.
The following compounds gave at 200 ppm gave at least 80% disease control in this test when compared to untreated control leaf disks under the same conditions, which show extensive disease development: […]

[2] = test system: Blumeria graminis f. Sp. tritici (Erysiphe graminis f. sp. tritici); test: Blumeria graminis f. sp. tritici / wheat / leaf disc preventative (powdery mildew on wheat); conditions: foliar, wheat leaf segments cv. Kanzler, inoculated 1 day after application, assessed 6-8 days after application, compared to untreated, read-out: disease control
Experimental: Blumeria graminis f. Sp. tritici (Erysiphe graminis f. sp. tritici)/Wheat/Leaf Disc Preventative (Powdery Mildew on Wheat) Wheat leaf segments cv. Kanzler were placed on agar in a multiwell plate (24-well format) and sprayed with the formulated test compound diluted in water. The leaf disks were inoculated by shaking powdery mildew infected plants above the test plates 1 day after application. The inoculated leaf disks were incubated at 20° C. and 60% rh under a light regime of 24 h darkness followed by 12 h light/12 h darkness in a climate chamber and the activity of a compound was assessed as percent disease control compared to untreated when an appropriate level of disease damage appears on untreated check leaf segments (6-8 days after application). The following compounds gave at 200 ppm give at least 80% disease control in this test when compared to untreated control leaf disks under the same conditions, which show extensive disease development: […]

[3] = test system: Puccinia recondita f. sp. tritici; test: Puccinia recondita f. sp. tritici / wheat / leaf disc curative (brown rust); conditions: foliar, wheat leaf segments cv. Kanzler, compound applied 1 day after inoculation, assessed 6-8 days after application, compared to untreated, read-out: disease control
Experimental: Puccinia recondita f. sp. tritici/Wheat/Leaf Disc Curative (Brown Rust) Wheat leaf segments cv. Kanzler are placed on agar in multiwell plates (24-well format). The leaf segments are inoculated with a spore suspension of the fungus. Plates were stored in darkness at 19° C. and 75% rh. The formulated test compound diluted in water was applied 1 day after inoculation. The leaf segments were incubated at 19° C. and 75% rh under a light regime of 12 h light/12 h darkness in a climate cabinet and the activity of a compound was assessed as percent disease control compared to untreated when an appropriate level of disease damage appears in untreated check leaf segments (6-8 days after application). The following compounds gave at 200 ppm gave at least 80% disease control in this test when compared to untreated control leaf disks under the same conditions, which show extensive disease development: […]

[4] = test system: Puccinia recondita f. sp. tritici; test: Puccinia recondita f. sp. tritici / wheat / leaf disc preventative (brown rust); conditions: foliar, 168 h, wheat leaf segments cv. Kanzler, inoculated 1 day after application, assessed 7-9 days after application, compared to untreated, read-out: disease control
Experimental: Puccinia recondita f. sp. tritici/Wheat/Leaf Disc Preventative (Brown Rust) Wheat leaf segments cv. Kanzler were placed on agar in multiwell plates (24-well format) and sprayed with the formulated test compound diluted in water. The leaf disks were inoculated with a spore suspension of the fungus 1 day after application. The inoculated leaf segments were incubated at 19° C. and 75% rh under a light regime of 12 h light/12 h darkness in a climate cabinet and the activity of a compound was assessed as percent disease control compared to untreated when an appropriate level of disease damage appears in untreated check leaf segments (7-9 days after application). The following compounds gave at 200 ppm gave at least 80% disease control in this test when compared to untreated control leaf disks under the same conditions, which show extensive disease development: […]

Measured: pest or weed control at 200 ppm

CCN(C)C=Nc1cc(Br)c(OC(C)COc2ccccc2)nc1C (stereo not drawn) [Q.028, N′-[5-bromo-2-methyl-6-(1-methyl-2-phenoxy-ethoxy)-3-pyridyl]-N-ethyl-N-methyl-formamidine]
≥ 80%: all assays above

CCCOCC(C)Oc1nc(C)c(N=CN(C)C2CC2)cc1Br (stereo not drawn) [Q.029, N′-[5-bromo-2-methyl-6-(1-methyl-2-propoxy-ethoxy)-3-pyridyl]-N-cyclopropyl-N-methyl-formamidine]
≥ 80%: all assays above

CCCOCC(C)Oc1nc(C)c(N=CN2CCC2)cc1Br (stereo not drawn) [Q.030, 1-(azetidin-1-yl)-N-[5-bromo-2-methyl-6-(1-methyl-2-propoxy-ethoxy)-3-pyridyl]methanimine]
≥ 80%: all assays above
